Experimental data: patent US8658800B2 (priority 2010, dated 2014)
Where two headings read alike, the source gives them in different places.

Assays:
[1] = logP by HPLC on reversed-phase columns (C 18), EEC Directive 79/831 Annex V.A8; assay type: physicochemical
Experimental: The logP values reported in the table above and in the Preparation Examples were determined in accordance with EEC Directive 79/831 Annex V.A8 by HPLC (High Performance Liquid Chromatography) on reversed-phase columns (C 18), with the following methods:
The LC-MS determination in the acidic range is carried out at pH 2.7 using the mobile phases 0.1% aqueous formic acid and acetonitrile (contains 0.1% formic acid), linear gradient from 10% acetonitrile to 95% acetonitrile
Calibration was carried out using unbranched alkan-2-ones (having from 3 to 16 carbon atoms) with known logP values (the logP values were determined by the retention times using linear interpolation between two successive alkanones).

[2] = tested on: caterpillars of the armyworm (Spodoptera frugiperda); test: Spodoptera frugiperda test (SPODFR spray treatment); assay type: in vivo; settings: foliar, 168 h, read-out: activity (kill of caterpillars)
Experimental: Spodoptera frugiperda Test (SPODFR Spray Treatment)
Solvents: 78.0 parts by weight of acetone
(§1) • 1.5 parts by weight of dimethylformamide Emulsifier: 0.5 part by weight of alkylaryl polyglycol ether
(§2) To produce a suitable preparation of active compound, 1 part by weight of active compound is mixed with the stated amount of solvents and emulsifier, and the concentrate is diluted with emulsifier-containing water to the desired concentration.
Discs of maize leaves (Zea mays) are sprayed with an active compound preparation of the desired concentration and, after drying, populated with caterpillars of the armyworm (Spodoptera frugiperda).
After 7 days, the effect in % is determined. 100% means that all caterpillars have been killed; 0% means that none of the caterpillars have been killed.

[3] = tested on: green peach aphid (Myzus persicae); test: Myzus test (MYZUPE spray treatment); assay type: in vivo; settings: 144 h, sprayed Chinese cabbage discs, after 6 days, read-out: activity (kill of aphids)
Experimental: Myzus Test (MYZUPE Spray Treatment)
Solvents: 78 parts by weight of acetone
as §1, §2
Discs of Chinese cabbage (Brassica pekinensis) infested by all stages of the green peach aphid (Myzus persicae) are sprayed with an active compound preparation of the desired concentration.
After 6 days, the effect in % is determined. 100% means that all of the aphids have been killed; 0% means that none of the aphids have been killed.

[4] = tested on: larvae of the mustard beetle (Phaedon cochleariae); test: Phaedon test (PHAECO spray treatment); assay type: in vivo; settings: 168 h, read-out: activity (kill of beetle larvae)
Experimental: Phaedon Test ([…] Spray Treatment) Solvents: 78.0 parts by weight of acetone • • 1.5 parts by weight of dimethylformamide Emulsifier: 0.5 part by weight of alkylaryl polyglycol ether To produce a suitable preparation of active compound, 1 part by weight of active compound is mixed with the stated amount of solvents and emulsifier, and the concentrate is diluted with emulsifier-containing water to the desired concentration. Discs of Chinese cabbage (Brassica pekinensis) are sprayed with an active compound preparation of the desired concentration and, after drying, populated with larvae of the mustard beetle (Phaedon cochleariae).

[5] = tested on: Lucilia cuprina larvae; test: Lucilia cuprina test (LUCICU); assay type: in vivo; settings: 100 ppm, treated horse meat, after 2 days
Experimental: Lucilia cuprina Test (LUCICU)
(§3) Solvent: dimethyl sulphoxide
(§4) To produce a suitable preparation of active compound, 10 mg of active compound are mixed with 0.5 ml of dimethyl sulphoxide and the concentrate is diluted with water to the desired concentration.
Vessels containing horse meat treated with the active compound of the desired concentration are populated with about 20 Lucilia cuprina larvae.
After 2 days, the kill in % is determined 100% means that all of the larvae have been killed; 0% means that none of the larvae have been killed.

[6] = tested on: adult Musca domestica; test: Musca domestica test (MUSCDO); assay type: in vivo; settings: 100 ppm, treated sponge, after 2 days
Experimental: Musca domestica Test (MUSCDO)
as §3, §4
Vessels containing a sponge treated with the active compound preparation of the desired concentration are populated with adult Musca domestica.
After 2 days, the kill in % is determined 100% means that all of the flies have been killed; 0% means that none of the flies have been killed.

[7] = HPLC, reversed-phase C 18, acidic range pH 2.7, 0.1% aqueous formic acid/acetonitrile, read-out: log P
[8] = reversed-phase C18 HPLC column, HPLC, reversed-phase C 18, acidic range pH 2.7, 0.1% aqueous formic acid/acetonitrile, read-out: log P
[9] = 100 g/ha, sprayed maize leaf discs, after 7 days
[10] = 100 g/ha, sprayed Chinese cabbage discs, after 7 days

For Cc1cc(Br)cc(OC(F)F)c1N, the chromatographic logP [1, 7] was 2.84.

Cc1cc(C#N)cc(OC(F)F)c1N showed a chromatographic logP [1, 7] of 1.9.

Cc1cccc(C(=O)NS(C)(=O)=O)c1N gave a chromatographic logP [1, 7] of 1.1.

Work on Cc1cc(Cl)cc(C(=O)NS(=O)(=O)N(C)C)c1NC(=O)c1cc(Cn2cc(C(F)(F)C(F)(F)F)cn2)nn1-c1ncccc1Cl [Compound 1] yielded a chromatographic logP ([1]; pH 2.7) of 3.35.

Compound Cc1cc(I)cc(C(=O)O)c1NC(=O)c1cc(Cn2nnc(C(F)(F)C(F)(F)F)n2)nn1-c1ncccc1Br [Compound 2] has a chromatographic logP [1, 8] of 3.69, a pest or weed control at 100 g/ha [2, 9] of 100% and a pest or weed control at 100 g/ha [3] of 80%. The pest or weed control at 100 g/ha [4, 10] was 100%.

Cc1cc(F)cc(C(=O)O)c1NC(=O)c1cc(Cn2nnc(C(F)(F)C(F)(F)F)n2)nn1-c1ncccc1Br [Compound 3] gave a chromatographic logP [1, 8] of 3.16 and a pest or weed control at 100 g/ha [2, 9] of 100%.

Cc1cc(I)cc(C(=O)NS(C)(=O)=O)c1NC(=O)c1cc(Cn2nnc(C(F)(F)C(F)(F)F)n2)nn1-c1ncccc1Br [Compound 4] gave a chromatographic logP [1, 8] of 3.39.

Cc1cccc(C(=O)NS(C)(=O)=O)c1NC(=O)c1cc(Cn2nnc(C(F)(F)F)n2)nn1-c1ncccc1Cl [Compound 5] showed a chromatographic logP ([1]; pH 2.7) of 2.47 and a pest or weed control at 100 g/ha ([2]; in Zea mays) of 100%.

In the case of Cc1cc(Br)cc(OC(F)F)c1NC(=O)c1cc(Cn2nnc(C(F)(F)F)n2)nn1-c1ncccc1Cl [Compound 8], the “efficacy (kill)” value [5] is reported as 100%, the chromatographic logP [1, 8] is reported as 3.77 and the pest or weed control at 100 g/ha [2, 9] is reported as 100%. For the same compound, the pest or weed control at 100 g/ha [4, 10] was 100%.

With Cc1cc(C#N)cc(OC(F)F)c1NC(=O)c1cc(Cn2nnc(C(F)(F)F)n2)nn1-c1ncccc1Cl [Compound 9] the “efficacy (kill)” value [5] was 100%, the chromatographic logP [1, 8] was 2.85 and the “efficacy (kill)” value [6] was 80%. The pest or weed control at 100 g/ha [2, 9] was 100%, the pest or weed control at 100 g/ha [3] was 90% and the pest or weed control at 100 g/ha [4, 10] was 100%.

Compound Cc1cc(Cl)cc(OC(F)(F)F)c1NC(=O)c1cc(Cn2nnc(C(F)(F)F)n2)nn1-c1ncccc1Cl [Compound 10] has a chromatographic logP [1, 8] of 4 and a pest or weed control at 100 g/ha [2, 9] of 100%.

With COC(=O)c1cc(I)cc(C)c1NC(=O)c1cc(Cn2nc(C(F)(F)F)cc2C(F)(F)F)nn1-c1ncccc1Cl [Compound 11] the chromatographic logP [1, 8] was 4.57.

For O=C(O)c1cc(Cl)cc(Cl)c1NC(=O)c1cc(Cn2cnc(C(F)F)n2)nn1-c1ncccc1Cl [Compound 12], the “efficacy (kill)” value [5] was 90%, the chromatographic logP [1, 8] was 2.2 and the pest or weed control at 500 g/ha ([2]; 500 g/ha, sprayed maize leaf discs, after 7 days) was 100%. It also gave a pest or weed control at 500 g/ha ([4]; 500 g/ha, sprayed Chinese cabbage discs, after 7 days) of 100%.

Compound Cc1cc(C#N)cc(C(=O)O)c1NC(=O)c1cc(Cn2nnc(C(F)(C(F)(F)F)C(F)(F)F)n2)nn1-c1ncccc1Cl [Compound 13] has a chromatographic logP [1, 8] of 3.36, a pest or weed control at 100 g/ha [2, 9] of 100% and a pest or weed control at 100 g/ha [3] of 80%. The pest or weed control at 100 g/ha [4, 10] was 100%.

Compound Cc1cc(C#N)cc(C(=O)O)c1NC(=O)c1cc(Cn2nnc(C(F)(F)F)n2)nn1-c1ncccc1Cl [Compound 14] has a chromatographic logP [1, 8] of 2.65, a pest or weed control at 100 g/ha [2, 9] of 100% and a pest or weed control at 100 g/ha [3] of 80%.

For O=C(O)c1cc(Cl)cc(Cl)c1NC(=O)c1cc(Cn2nc(C(F)(F)C(F)(F)C(F)(F)F)cc2C(F)(F)F)nn1-c1ncccc1Cl [Compound 15], the chromatographic logP [1, 7] was 4.4 and the pest or weed control at 100 g/ha ([4]; in Brassica rapa) was 83%.

In the case of Cc1cc(C#N)cc(C(=O)O)c1NC(=O)c1cc(Cn2cnc(C(F)(F)F)c2C(F)(F)F)nn1-c1ncccc1Cl [Compound 16], the chromatographic logP [1, 8] is reported as 2.63 and the pest or weed control at 100 g/ha [4, 10] is reported as 100%.

In the case of Cc1cc(Cl)cc(C(=O)O)c1NC(=O)c1cc(Cn2nc(C)c(Br)c2C)nn1-c1ncccc1Cl [Compound 17], the chromatographic logP [1, 8] is reported as 3.16.

In the case of Cc1cc(C#N)cc(C(=O)O)c1NC(=O)c1cc(Cn2nc(C(F)F)cc2C(F)F)nn1-c1ncccc1Cl [Compound 18], the chromatographic logP [1, 8] is reported as 2.62.

Compound Cc1nc(C(F)(F)F)nn1Cc1cc(C(=O)Nc2c(Cl)cc(Cl)cc2C(=O)O)n(-c2ncccc2Cl)n1 [Compound 19] has a chromatographic logP [1, 8] of 2.68 and a pest or weed control at 100 g/ha [3] of 80%.

Cc1cc(F)cc(C(=O)O)c1NC(=O)c1cc(Cn2nnc(C(F)(F)F)n2)nn1-c1ncccc1Cl [Compound 20] gave a chromatographic logP [1, 8] of 2.75.

With O=C(O)c1cc(Cl)cc(Cl)c1NC(=O)c1cc(Cn2nnc(C(F)(F)F)n2)nn1-c1ncccc1Cl [Compound 21] the chromatographic logP [1, 8] was 3.04, the pest or weed control at 100 g/ha [2, 9] was 83% and the pest or weed control at 100 g/ha [4, 10] was 100%.

With Cc1cc(Cl)cc(C(=O)O)c1NC(=O)c1cc(Cn2nnc(C(F)(F)C(F)(F)F)n2)nn1-c1ncccc1Cl [Compound 22] the chromatographic logP [1, 8] was 3.44 and the pest or weed control at 100 g/ha [4, 10] was 100%.

For O=C(O)c1cc(Cl)cc(Cl)c1NC(=O)c1cc(Cn2nnc(C(F)(F)C(F)(F)F)n2)nn1-c1ncccc1Cl [Compound 23], the chromatographic logP [1, 8] was 3.37 and the pest or weed control at 100 g/ha [4, 10] was 100%.

For O=C(O)c1cc(Cl)cc(Cl)c1NC(=O)c1cc(Cn2nnc(C(F)F)n2)nn1-c1ncccc1Cl [Compound 25], the chromatographic logP [1, 8] was 2.55.

For O=C(O)c1cc(Cl)cc(Cl)c1NC(=O)c1cc(Cn2ncc(C(F)(F)F)n2)nn1-c1ncccc1Cl [Compound 26], the chromatographic logP [1, 8] was 3.03, the pest or weed control at 100 g/ha [2, 9] was 100% and the pest or weed control at 100 g/ha [3] was 90%. The pest or weed control at 100 g/ha [4, 10] was 100%.

In the case of Cc1cc(I)cc(C(=O)O)c1NC(=O)c1cc(Cn2ncc(C(F)(F)F)n2)nn1-c1ncccc1Cl [Compound 27], the chromatographic logP [1, 8] is reported as 3.26 and the pest or weed control at 100 g/ha [2, 9] is reported as 83%.

O=C(O)c1cc(Cl)cc(Cl)c1NC(=O)c1cc(Cn2cc(C(F)(F)F)nn2)nn1-c1ncccc1Cl [Compound 28] showed a chromatographic logP [1, 8] of 2.69, a pest or weed control at 100 g/ha [3] of 100% and a pest or weed control at 100 g/ha [4, 10] of 100%.

COC(=O)c1cc(F)cc(C)c1NC(=O)c1cc(Cn2nnc(C(F)(F)F)n2)nn1-c1ncccc1Cl [Compound 29] showed a chromatographic logP [1, 8] of 3.33, a pest or weed control at 100 g/ha [2, 9] of 100% and a pest or weed control at 100 g/ha [4, 10] of 83%.

Cc1cc(Cl)cc(C(=O)O)c1NC(=O)c1cc(Cn2nnc(C(F)(F)F)n2)nn1-c1ncccc1Cl [Compound 30] gave a chromatographic logP [1, 8] of 3.05, a pest or weed control at 100 g/ha [2, 9] of 83% and a pest or weed control at 100 g/ha [3] of 80%.

For Cc1cc(C#N)cc(C(=S)NC(C)(C)C)c1NC(=O)c1cc(Cn2nnc(C(F)(F)F)n2)nn1-c1ncccc1Cl [Compound 31], the chromatographic logP [1, 8] was 3.75, the pest or weed control at 100 g/ha [2, 9] was 83% and the pest or weed control at 100 g/ha [3] was 90%. For the same compound, the pest or weed control at 100 g/ha [4, 10] was 100%.

Cc1cccc(S(N)(=O)=O)c1NC(=O)c1cc(Cn2nnc(C(F)(F)F)n2)nn1-c1ncccc1Cl [Compound 32] gave a chromatographic logP [1, 8] of 2.56.

Work on CNS(=O)(=O)c1cccc(C)c1NC(=O)c1cc(Cn2nnc(C(F)(F)F)n2)nn1-c1ncccc1Cl [Compound 33] yielded a chromatographic logP [1, 8] of 2.9.

For CCC(=O)c1cccc(C)c1NC(=O)c1cc(Cn2nnc(C(F)(F)F)n2)nn1-c1ncccc1Cl [Compound 34], the chromatographic logP [1, 8] was 3.35.

Work on Cc1cccc(C(=O)C2CC2)c1NC(=O)c1cc(Cn2nnc(C(F)(F)F)n2)nn1-c1ncccc1Cl [Compound 35] yielded a chromatographic logP [1, 8] of 3.33 and a pest or weed control at 100 g/ha [2, 9] of 100%.

In the case of CNC(=S)c1cc(I)cc(C)c1NC(=O)c1cc(Cn2nnc(C(F)(F)F)n2)nn1-c1ncccc1Cl [Compound 36], the chromatographic logP [1, 8] is reported as 3.73, the pest or weed control at 100 g/ha [2, 9] is reported as 100% and the pest or weed control at 100 g/ha [3] is reported as 100%. For the same compound, the pest or weed control at 100 g/ha [4, 10] was 100%.
